Assay results reported in patent US6908908B2, “Biologically active 4H-benzo [1,4] oxazin-3-ones” (Ortho-McNeil Pharmaceutical, Inc., priority 2000, dated 2005).

Biological target: T1, PPAR γ (Homo sapiens, UniProt P37231)
T1 construct: Following the challenge of the preadipocytes, cells may be lysed with lysis buffer; endogenous in cells; host or cells: preadipocytes
T1 sequence (P37231 1-505): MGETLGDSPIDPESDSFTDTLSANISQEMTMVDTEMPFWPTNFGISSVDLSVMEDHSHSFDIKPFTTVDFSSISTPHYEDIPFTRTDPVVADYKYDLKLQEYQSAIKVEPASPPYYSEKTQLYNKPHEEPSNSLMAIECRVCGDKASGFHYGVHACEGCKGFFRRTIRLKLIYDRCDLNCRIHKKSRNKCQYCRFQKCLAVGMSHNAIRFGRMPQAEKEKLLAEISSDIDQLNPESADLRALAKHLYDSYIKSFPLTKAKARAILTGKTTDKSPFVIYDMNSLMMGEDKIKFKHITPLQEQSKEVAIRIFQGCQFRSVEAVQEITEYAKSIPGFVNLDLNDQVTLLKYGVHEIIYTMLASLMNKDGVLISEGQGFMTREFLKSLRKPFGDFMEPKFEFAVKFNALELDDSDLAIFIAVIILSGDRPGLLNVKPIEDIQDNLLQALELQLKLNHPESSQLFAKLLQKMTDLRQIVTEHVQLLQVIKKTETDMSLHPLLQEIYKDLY
Assay: aP2 Assay for Agonist (induction of aP2 mRNA production); further: test concentration or dose not given here
Assay type: cell-based
Settings: Table 1; fold increase over vehicle in induction of aP2 mRNA production

Agonist Intrinsic Activity	Structure (SMILES)
45.4	CC(F)(F)CCCCN1C(=O)C(CCOc2ccccc2CC(=O)O)Oc2ccccc21 (single isomer, unassigned) [Compound 88]
42.0	CC(F)(F)CCCCN1C(=O)C(CCOc2ccccc2CC(=O)O)Oc2ccccc21 (single isomer, unassigned) [Compound 89]
44.8	O=C(O)Cc1ccccc1OCCC1Oc2ccccc2N(CCCCCCF)C1=O (single isomer, unassigned) [Compound 92]
53.1	O=C(O)Cc1ccccc1OCCC1Oc2ccccc2N(CCCCCCF)C1=O (single isomer, unassigned) [Compound 93]
0.9	COC(=O)c1ccccc1OCCC1Oc2ccccc2N(Cc2ccc(C)cc2)C1=O (centres unmarked) [Compound 1]
1.2	Cc1cccc(CN2C(=O)C(CCOc3ccccc3C(F)(F)F)Oc3ccccc32)c1 (centres unmarked) [Compound 2]
0.6	COC(=O)c1ccccc1OCCC1Oc2ccccc2N(Cc2cccc(C)c2)C1=O (centres unmarked) [Compound 3]
1.0	COC(=O)c1ccccc1OCCC1Oc2ccccc2N(Cc2ccccc2)C1=O (centres unmarked) [Compound 4]
0.7	COC(=O)c1ccccc1OCCC1Oc2ccccc2N(Cc2ccc(Cl)cc2)C1=O (centres unmarked) [Compound 5]
3.3	O=C1C(CCOc2ccccc2C(F)(F)F)Oc2ccccc2N1Cc1ccc(Cl)c(Cl)c1 (centres unmarked) [Compound 8]
0.9	COC(=O)c1ccccc1OCCC1Oc2ccccc2N(Cc2cccc(C(F)(F)F)c2)C1=O (centres unmarked) [Compound 9, Benzoic acid, 2-[2-[3,4-dihydro-3-oxo-4-[[3-(trifluoromethyl)phenyl]methyl]-2H-1,4-benzoxazin-2-yl]ethoxy]-, methyl ester]
0.8	O=C1C(CCOc2ccccc2C(F)(F)F)Oc2ccccc2N1Cc1cccc(C(F)(F)F)c1 (centres unmarked) [Compound 10]
2.6	CCCCCCN1C(=O)C(CCOc2ccccc2C(=O)C(=O)O)Oc2ccccc21 (centres unmarked) [Compound 13, Benzeneacetic acid, 2-[2-(4-hexyl-3,4-dihydro-3-oxo-2H-1,4-benzoxazin-2-yl)ethoxy]-a-oxo-]
7.2	CCCCCCN1C(=O)C(CCOc2ccccc2CP(=O)(O)O)Oc2ccccc21 (centres unmarked) [Compound 15, Phosphonic acid, [[2-[2-(4-hexyl-3,4-dihydro-3-oxo-2H-1,4-benzoxazin-2-yl)ethoxy]phenyl]methyl]-]
1.1	CCCCCCCCCCN1C(=O)C(CCOc2ccccc2C(F)(F)F)Oc2ccccc21 (centres unmarked) [Compound 17]
0.3	COCCCCN1C(=O)C(CCOc2ccccc2C(F)(F)F)Oc2ccccc21 (centres unmarked) [Compound 18]
1.4	CCOCCCN1C(=O)C(CCOc2ccccc2C(F)(F)F)Oc2ccccc21 (centres unmarked) [Compound 19]
1.9	CCCSCCN1C(=O)C(CCOc2ccccc2C(F)(F)F)Oc2ccccc21 (centres unmarked) [Compound 21]
7.2	COC(=O)Cc1ccccc1OCCC1Oc2ccccc2N(CC(=O)OC)C1=O (centres unmarked) [Compound 22]
0.8	O=C(O)Cc1ccccc1OCCC1Oc2ccccc2N(CC(=O)O)C1=O (centres unmarked) [Compound 23]
1.3	COC(=O)Cc1ccccc1OCCC1Oc2ccccc2N(CCOC(C)=O)C1=O (centres unmarked) [Compound 24]

Agonist Intrinsic Activity	Structure (SMILES)
3.5	O=C(O)Cc1ccccc1OCCC1Oc2ccccc2N(CCO)C1=O (centres unmarked) [Compound 25]
3.1	O=C([O-])c1ccccc1OCCC1Oc2ccccc2N(Cc2cccc(C(F)(F)F)c2)C1=O.[Na+] (centres unmarked) [Compound 26, Benzoic acid, 2-[2-[3,4-dihydro-3-oxo-4-[[3-(trifluoromethyl)phenyl]methyl]-2H-1,4-benzoxazin-2-yl]ethoxy]-, monosodium salt]
0.8	COC(=O)Cc1ccccc1OCCC1Oc2ccccc2N(Cc2cccc(C(F)(F)F)c2)C1=O (centres unmarked) [Compound 27]
21.5	O=C([O-])Cc1ccccc1OCCC1Oc2ccccc2N(Cc2cccc(C(F)(F)F)c2)C1=O.[Na+] (centres unmarked) [Compound 28]
0.8	COC(=O)CCc1ccccc1OCCC1Oc2ccccc2N(Cc2cccc(C(F)(F)F)c2)C1=O (centres unmarked) [Compound 29]
5.6	O=C([O-])CCc1ccccc1OCCC1Oc2ccccc2N(Cc2cccc(C(F)(F)F)c2)C1=O.[Na+] (centres unmarked) [Compound 30]
0.9	COC(=O)CCCc1ccccc1OCCC1Oc2ccccc2N(Cc2cccc(C(F)(F)F)c2)C1=O (centres unmarked) [Compound 31]
8.2	O=C([O-])CCCc1ccccc1OCCC1Oc2ccccc2N(Cc2cccc(C(F)(F)F)c2)C1=O.[Na+] (centres unmarked) [Compound 32]
0.8	COC(=O)Cc1cccc(OCCC2Oc3ccccc3N(Cc3cccc(C(F)(F)F)c3)C2=O)c1 (centres unmarked) [Compound 33]
10.4	O=C([O-])Cc1cccc(OCCC2Oc3ccccc3N(Cc3cccc(C(F)(F)F)c3)C2=O)c1.[Na+] (centres unmarked) [Compound 34]
0.8	COC(=O)CCc1cccc(OCCC2Oc3ccccc3N(Cc3cccc(C(F)(F)F)c3)C2=O)c1 (centres unmarked) [Compound 35]
11.1	O=C([O-])CCc1cccc(OCCC2Oc3ccccc3N(Cc3cccc(C(F)(F)F)c3)C2=O)c1.[Na+] (centres unmarked) [Compound 36]
1.2	COC(=O)Cc1ccccc1OCCC1Oc2ccccc2N(Cc2ccc(C(F)(F)F)cc2)C1=O (centres unmarked) [Compound 37]
38.7	O=C(O)Cc1ccccc1OCCC1Oc2ccccc2N(Cc2ccc(C(F)(F)F)cc2)C1=O (centres unmarked) [Compound 38]
6.7	O=C(O)Cc1ccccc1OCCC1Oc2ccccc2N(Cc2cc(C(F)(F)F)cc(C(F)(F)F)c2)C1=O (centres unmarked) [Compound 40]
2.1	O=C(O)CCc1ccccc1OCCC1Oc2ccccc2N(Cc2cc(C(F)(F)F)cc(C(F)(F)F)c2)C1=O (centres unmarked) [Compound 42]
6.8	O=C(O)Cc1cccc(OCCC2Oc3ccccc3N(Cc3cc(C(F)(F)F)cc(C(F)(F)F)c3)C2=O)c1 (centres unmarked) [Compound 44]
7.2	COC(=O)Cc1ccccc1OCCC1Oc2ccccc2N(CC(=O)OC)C1=O (centres unmarked) [Compound 45]
2	O=C(O)Cc1ccccc1OCCC1Oc2ccccc2N(CC(=O)O)C1=O (centres unmarked) [Compound 46]
1.3	COC(=O)Cc1ccccc1OCCC1Oc2ccccc2N(CCOC(C)=O)C1=O (centres unmarked) [Compound 47]
8	O=C(O)Cc1ccccc1OCCC1Oc2ccccc2N(CCO)C1=O (centres unmarked) [Compound 48]

Agonist Intrinsic Activity	Structure (SMILES)
5.7	C#CCN1C(=O)C(CCOc2ccccc2CC(=O)OC)Oc2ccccc21 (centres unmarked) [Compound 49]
6.2	CCCCCCCN1C(=O)C(CCOc2ccccc2CC(=O)OC)Oc2ccccc21 (centres unmarked) [Compound 50]
28.6	CCCCCCCN1C(=O)C(CCOc2ccccc2CC(=O)O)Oc2ccccc21 (centres unmarked) [Compound 51]
1.3	CCCCCCCCN1C(=O)C(CCOc2ccccc2CC(=O)OC)Oc2ccccc21 (centres unmarked) [Compound 52]
26.4	CCCCCCCCN1C(=O)C(CCOc2ccccc2CC(=O)O)Oc2ccccc21 (centres unmarked) [Compound 53]
0.9	CCCCCCCCCN1C(=O)C(CCOc2ccccc2CC(=O)OC)Oc2ccccc21 (centres unmarked) [Compound 54]
7.1	CCCCCCCCCN1C(=O)C(CCOc2ccccc2CC(=O)O)Oc2ccccc21 (centres unmarked) [Compound 55]
1.0	CCCCCCCCCCN1C(=O)C(CCOc2ccccc2CC(=O)OC)Oc2ccccc21 (centres unmarked) [Compound 56]
9.9	CCCCCCCCCCN1C(=O)C(CCOc2ccccc2CC(=O)O)Oc2ccccc21 (centres unmarked) [Compound 57]
1.5	O=C(O)CCCCN1C(=O)C(CCOc2ccccc2CC(=O)O)Oc2ccccc21 (centres unmarked) [Compound 60]
1.5	NC(=O)CCCCN1C(=O)C(CCOc2ccccc2CC(=O)O)Oc2ccccc21 (centres unmarked) [Compound 62]
3.6	O=C(O)Cc1ccccc1OCCC1Oc2ccccc2N(CCCCCO)C1=O (centres unmarked) [Compound 64]
0.8	COC(=O)Cc1ccccc1OCCC1Oc2ccccc2N(CCC2CCCCC2)C1=O (centres unmarked) [Compound 65]
43.2	O=C(O)Cc1ccccc1OCCC1Oc2ccccc2N(CCC2CCCC2)C1=O (centres unmarked) [Compound 68]
57.9	O=C(O)Cc1ccccc1OCCC1Oc2ccccc2N(CCCC2CCCC2)C1=O (centres unmarked) [Compound 70]
32	CC(C)CCCCN1C(=O)C(CCOc2ccccc2CC(=O)O)Oc2ccccc21 (centres unmarked) [Compound 72]
22.0	CC(C)(C)CCCCN1C(=O)C(CCOc2ccccc2CC(=O)O)Oc2ccccc21 (centres unmarked) [Compound 74]
28.7	CC(CCN1C(=O)C(CCOc2ccccc2CC(=O)O)Oc2ccccc21)CC(C)(C)C (centres unmarked) [Compound 76]
9.9	COC(=O)Cc1ccccc1OCCC1Oc2ccccc2N(CCCCC(C)=O)C1=O (centres unmarked) [Compound 77, Benzeneacetic acid, 2-[2-[3,4-dihydro-3-oxo-4-(5-oxohexyl)-2H-1,4-benzoxazin-2-yl]ethoxy]-, methyl ester]

Structure (SMILES)	Agonist Intrinsic Activity
CCCOCCN1C(=O)C(CCOc2ccccc2C(F)(F)F)Oc2ccccc21 (centres unmarked) [Compound 20]	1.2
